Common to all, as to format: cell-based
One test relates to U251 glioma cells. The experiment in a line: Colony formation assay (CFA) with U251 glioma cells after irradiation. The following applies: 50% Xe for 60 min after irradiation and/or 25 μM memantine, colonies counted after 11 days. The text has this:
(§1) In radiobiological research, colony formation assay (CFA) represents an established method to evaluate the in-vitro-effects of radiation treatment (RT) alone or in combination with additional substances on cell survival and reproduction capability. To provide a method for investigation of modulating properties mediated by gaseous agents in combination with ionizing radiation treatment, a system to combine CFA with gas exposure before, during or after radiation treatment was designed. Subsequently CFA were performed with established glioma cell lines U87MG and U251, as well as cervical cancer-derived cell line HeLa investigating the effect of xenon gas exposure on cell survival after radiation treatment. Expression of AMPAR and NMDAR subunits was tested by immunofluorescence staining. In vitro colony formation assay (CFA) comparing surviving fractions of irradiated U87MG cells and U251 cells exposed to 50% Xe and/or treated with 25 μM of memantine to a control group were performed. Additionally, a CFA comparing surviving fractions of irradiated HeLa cells exposed to 50% Xe to a control group was implemented. CFA were carried out in triplets of T25-flasks for each irradiation dose of 0, 2, 4, 6 and 8 Gy in three (U87MG and HeLa) or four (U251) independent repetitions. U87MG and HeLa cells were cultured in Dulbecco's modified eagle's medium (DMEM; U87: Biochrom AG, Berlin, Germany; HeLa: Thermo Fisher Scientific, Waltham, US) and U251 cells were cultured in Gibco Roswell Park Memorial Institute (RPMI) 1640 medium+GlutaMAX™ (Thermo Fisher Scientific, Waltham, US). Cells were stored in an incubator (ambient air with additional 5% CO2) and split regularly before confluence. In preparation of CFA, cells were dissolved, counted, and distributed into T25-flasks starting with 1000 cells (U87MG), 100 cells (U251), or 200 cells (HeLa) per flask for non-irradiated groups increasing the cell count with irradiation dose to 1000, 2000, 5000, and 10.000 cells (U87MG), 200, 600, 2000, and 5000 cells (U251), or 400, 800, 2000, and 4000 cells (HeLa), respectively. Cells were allowed to attach for 14 to 16 h (U87MG), for 4 h (U251), or for 5.5 h (HeLa) and 108 μl of either memantine-hydrochloride 0.25 mg/ml (Sigma-Aldrich Corp., St. Louis, USA) or distilled water as placebo were added 60 min at U87MG and 90 min at U251 and HeLa prior to irradiation, resulting in 25 μM memantine-hydrochloride per flask. For irradiation, 15 flasks (5 triplets, each for 0, 2, 4, 6, 8 Gy) were placed alongside the margin of eight acrylic glass plates (thickness 1.0 cm) with two plates further added on top to balance secondary electrons. Vertical position to the gantry of a conventional linear accelerator (Elekta Synergy, Elekta AB, Stockholm, Sweden) was allocated by wall-mounted lasers marking the center of the flasks' caps membrane, horizontal position was validated by opening the linear accelerator's light field (32.0×32.0 cm) and by positioning the plates centrally inside the field. The triplet from the 0 Gy dose-group was removed immediately after placement (sham-irradiation) and exchanged with dummy T25-flasks filled with water. After delivery of 181.2 MU of 6 MeV photons, equivalent to an effective dose of 2 Gy, the 2 Gy-triplet was removed and replaced by dummy flasks. This process was repeated until a cumulative dose of 8 Gy for the last triplet was reached. Gas exposure was performed after the radiation treatment described above. The flasks were exposed to a preformed gas mixture for 60 minutes containing either 75% Xe, 20% O2 and 5% CO2 for the xenon group or a mixture with the 75% Xe-proportion replaced by nitrogen (N2) for the memantine group and the control group. […] After exposure, the flasks membrane caps were sealed with custom PVC-plugs and stored in a heat cabinet for 24 hours. Finally, the membrane caps' plugs were removed and the flasks were transferred into the 5% CO2-incubator remaining untouched for 13 days (U87MG), 10 days (U251), or 10 days (HeLa). […]

The test system of the next test is U87MG glioma cells. The experiment in a line: Colony formation assay (CFA) with U87MG glioma cells after irradiation. The settings on record: for mean survival fraction in relation to the control group: 50% Xe for 60 min after irradiation and/or 25 μM memantine, colonies counted after 14 days.
Source text: as §1

The subject of test [1] is HeLa cervical cancer cells. The experiment in a line: Colony formation assay (CFA) with HeLa cervical cancer cells after irradiation. The following applies: for mean survival fraction in relation to the control group: 50% Xe for 60 min after irradiation, colonies counted after 11 days. From the text: In radiobiological research, colony formation assay (CFA) represents an established method to evaluate the in-vitro-effects of radiation treatment (RT) alone or in combination with additional substances on cell survival and reproduction capability.
To provide a method for investigation of modulating properties mediated by gaseous agents in combination with ionizing radiation treatment, a system to combine CFA with gas exposure before, during or after radiation treatment was designed. Subsequently CFA were performed with established glioma cell lines U87MG and U251, as well as cervical cancer-derived cell line HeLa investigating the effect of xenon gas exposure on cell survival after radiation treatment. Expression of AMPAR and NMDAR subunits was tested by immunofluorescence staining.
In vitro colony formation assay (CFA) comparing surviving fractions of irradiated U87MG cells and U251 cells exposed to 50% Xe and/or treated with 25 μM of memantine to a control group were performed. Additionally, a CFA comparing surviving fractions of irradiated HeLa cells exposed to 50% Xe to a control group was implemented. CFA were carried out in triplets of T25-flasks for each irradiation dose of 0, 2, 4, 6 and 8 Gy in three (U87MG and HeLa) or four (U251) independent repetitions.
U87MG and HeLa cells were cultured in Dulbecco's modified eagle's medium (DMEM; U87: Biochrom AG, Berlin, Germany; HeLa: Thermo Fisher Scientific, Waltham, US) and U251 cells were cultured in Gibco Roswell Park Memorial Institute (RPMI) 1640 medium+GlutaMAX™ (Thermo Fisher Scientific, Waltham, US). Cells were stored in an incubator (ambient air with additional 5% CO2) and split regularly before confluence. In preparation of CFA, cells were dissolved, counted, and distributed into T25-flasks starting with 1000 cells (U87MG), 100 cells (U251), or 200 cells (HeLa) per flask for non-irradiated groups increasing the cell count with irradiation dose to 1000, 2000, 5000, and 10.000 cells (U87MG), 200, 600, 2000, and 5000 cells (U251), or 400, 800, 2000, and 4000 cells (HeLa), respectively. Cells were allowed to attach for 14 to 16 h (U87MG), for 4 h (U251), or for 5.5 h (HeLa) and 108 μl of either memantine-hydrochloride 0.25 mg/ml (Sigma-Aldrich Corp., St. Louis, USA) or distilled water as placebo were added 60 min at U87MG and 90 min at U251 and HeLa prior to irradiation, resulting in 25 μM memantine-hydrochloride per flask.
For irradiation, 15 flasks (5 triplets, each for 0, 2, 4, 6, 8 Gy) were placed alongside the margin of eight acrylic glass plates (thickness 1.0 cm) with two plates further added on top to balance secondary electrons. Vertical position to the gantry of a conventional linear accelerator (Elekta Synergy, Elekta AB, Stockholm, Sweden) was allocated by wall-mounted lasers marking the center of the flasks' caps membrane, horizontal position was validated by opening the linear accelerator's light field (32.0×32.0 cm) and by positioning the plates centrally inside the field. The triplet from the 0 Gy dose-group was removed immediately after placement (sham-irradiation) and exchanged with dummy T25-flasks filled with water. After delivery of 181.2 MU of 6 MeV photons, equivalent to an effective dose of 2 Gy, the 2 Gy-triplet was removed and replaced by dummy flasks. This process was repeated until a cumulative dose of 8 Gy for the last triplet was reached.
Gas exposure was performed after the radiation treatment described above. The flasks were exposed to a preformed gas mixture for 60 minutes containing either 75% Xe, 20% O2 and 5% CO2 for the xenon group or a mixture with the 75% Xe-proportion replaced by nitrogen (N2) for the memantine group and the control group. […] After exposure, the flasks membrane caps were sealed with custom PVC-plugs and stored in a heat cabinet for 24 hours. Finally, the membrane caps' plugs were removed and the flasks were transferred into the 5% CO2-incubator remaining untouched for 13 days (U87MG), 10 days (U251), or 10 days (HeLa). […]

Molecules are shown by their SMILES.

As for `CC12CC3CC(C)(C1)CC(N)(C3)C2` [memantine], the “mean survival fraction in relation to the control group” value (shortened to “mean survival fraction in relation”) with U251 glioma cells (radiation dose 0 Gy (sham)) stood at 72.3%; in the test on U251 glioma cells (radiation dose 2 Gy), 34.1%; in the test with U251 glioma cells (radiation dose 4 Gy) it was 11.9%; in the test with U251 glioma cells (radiation dose 6 Gy), 3.8%; with U251 glioma cells (radiation dose 8 Gy), 1.0%; with U87MG glioma cells (radiation dose 0 Gy (sham)) it was 93.8%. Further, the “mean survival fraction in relation” value in the test with U87MG glioma cells (radiation dose 2 Gy) turned out to be 46.8%; in the test with U87MG glioma cells (radiation dose 4 Gy), 28.5%; in the test with U87MG glioma cells (radiation dose 6 Gy), 15.9%; in the test with U87MG glioma cells (radiation dose 8 Gy), 8.0%. Also, the “difference in survival to the groups without added memantine” value in the test on U87MG glioma cells (25 μM memantine, 0 to 8 Gy, t-test) was “no significant differences”.
Regarding `[Xe]` [xenon], the “mean survival fraction in relation” value in the test with U251 glioma cells (radiation dose 0 Gy (sham)) worked out at 78.7%; in the test on U251 glioma cells (radiation dose 2 Gy), 37.5%; in the test on U251 glioma cells (radiation dose 4 Gy) it was 14.6%; in the test on U251 glioma cells (radiation dose 6 Gy) it was 4.2%; in the test with U251 glioma cells (radiation dose 8 Gy), 1.0%; in the test on U87MG glioma cells (radiation dose 0 Gy (sham)), 94.2%. For the same molecule, the “mean survival fraction in relation” value is listed as 41.5% in the test on U87MG glioma cells (radiation dose 2 Gy); 25.0% in the test with U87MG glioma cells (radiation dose 4 Gy); 10.3% in the test on U87MG glioma cells (radiation dose 6 Gy); 4.7% with U87MG glioma cells (radiation dose 8 Gy); 114.7% in test [1] (radiation dose 0 Gy (sham)); 71.1% in test [1] (radiation dose 2 Gy). The “mean survival fraction in relation” value was 23.5% in test [1] (radiation dose 4 Gy), 7.1% in test [1] (radiation dose 6 Gy) and 2.0% in test [1] (radiation dose 8 Gy). Also, the “impact of xenon exposure after irradiation on HeLa cell survival” value in test [1] (50% Xe after irradiation, except at a very high radiation dose level) is recorded as “no impact”.
